Columns and labels:
Assay type in all cases: in vivo, mouse
[1] = system: mice with oxazolone-induced enteritis; assay: Efficacy in mice with oxazolone-induced inflammatory bowel disease; conditions: intragastric 1 mg/kg/day
Procedure: Experimental animals: 30 male C57 mice, 8 weeks old.
Modeling and administration: 3% Oxazolone was dissolved in the solvent (acetone:olive oil, 1:4). After the mouse was anesthetized, the hair on the shoulder of the mouse was removed, and then 150 μL of Oxazolone with a mass fraction of 3% was added dropwise. On the 8th day after treatment, 1% Oxazolone was dissolved in a solvent (ethanol:sterilized water, 1:1). After the mice were anesthetized, 150 μL of 1% Oxazolone was administered rectally to create a model. The modeling mice were divided into two groups, with 10 mice in each group. One group was given compound A5 by gavage at 1 mg/kg/day, one group was given physiological saline, and the other group of 10 mice without modeling was used as a control group. Starting from the day of modeling, the weight of the mice was recorded every day. The feces of the mice were collected on the third day after rectal administration to observe the softness of the feces and whether there was bleeding. […]
Mouse enteritis disease activity index score: Mice were scored based on the degree of weight loss of the mouse (0: normal; 1:1-5%; 2:6-10%; 3:11-18%; 4: >18%), the degree of the softness of the feces (0: normal; 2: soft; 4: diarrhea), and the degree of feces bleeding (0: normal; 2: occult blood; 4: bloody stool), then each score was added and divide by three. […]

[2] = system: mice with liver fibrosis induced by carbon tetrachloride; assay: Efficacy in mice with carbon tetrachloride-induced liver fibrosis; conditions: intragastric 1 mg/kg/day and 3 mg/kg/day for 3 weeks
Procedure: Experimental animals: 40 male C57 mice, 8 weeks old.
Modeling and administration: 400 μL of carbon tetrachloride (CCl4) was added to 3.6 mL of olive oil, mixed well, and then injected intraperitoneally at 0.1 mL/20 g, twice a week for six weeks. Six weeks later, 30 mice were divided into 3 groups, with 10 mice in each group. They were given physiological saline by gavage, 1 mg/kg A5 and 3 mg/kg A5. In addition, 10 mice that were not induced were given physiological saline as a control group. After 3 weeks of continuous administration, the mice were sacrificed, and the livers were removed, weighed, fixed and embedded, and the remaining liver tissue was cryopreserved for detection of hydroxyproline content.
Masson staining of mouse liver tissue: The mouse liver tissue was paraffin-embedded according to conventional methods, and sections were subjected to Masson staining. The specific procedures were as follows. […]
Detection of hydroxyproline content in mouse liver tissue: A hydroxyproline detection kit (Nanjing Jiancheng Bioengineering Institute) was used. […] Absorbance values of the supernatant at a wavelength of 550 nm were determined using a microplate reader. The hydroxyproline content per 100 mg of liver tissue was then calculated.

[3] = Oral pharmacokinetics of phosphate prodrug A5 in ICR mice (plasma and tissues); conditions: oral 30 mg/kg
Procedure: Compound A5 (30 mg/kg) was administered orally to overnight fasted ICR mice (male, n=3/time point). The mice were fed 2 hours after administration. Samples were collected before administration and 1 h, 2 h, 4 h, and 8 h after administration. Blood was collected in centrifuge tubes pretreated with heparin sodium and bis(4-nitrophenyl)phosphate (BNPP). After centrifugation at 11,000 rpm for 5 min at 4° C., plasma was obtained and stored at −80° C. Next, 100 […] of plasma sample, precipitated, vortexed for 1 min, and centrifuged (11,000 rpm) for 5 min. A mixture of 20 […] of methanol/acetonitrile (1:1, v/v) was taken to analyze the concentrations of compound A5 and compound A4-1a by LC-MS/MS. Heart (blood emptying), liver, and lung tissues were stored at −80° C. until analysis. After removal of contents, the duodenum and colon were quickly washed with cold saline containing BNPP and stored at −80° C. until analysis. […] 20 μL of the supernatant was redissolved in 20 μL of ACN/H2O (1:1, v/v), and the concentrations of compound A5 and compound A4-1a were analyzed by LC-MS/MS.

SMILES: COc1ccc(C[C@H]2COC(=O)[C@]2(C)Cc2ccc(OP(=O)(O)O)c(OC)c2)cc1OC [Compound A5, 4-(((3R,4R)-4-(3,4-dimethoxybenzyl)-3-methyl-2-oxotetrahydrofuran-3-yl)methyl)-2-methoxyphenyl dihydrogen phosphate]
- colon pathology score [1]: significantly reduce the colon pathology score
- disease activity index of enteritis [1]: significantly reduce the disease activity index
- hydroxyproline (HYP) content in liver tissue [2]: significantly reduce the increase in hydroxyproline content
- positive rate of Masson staining in liver (degree of liver fibrosis) [2]: significantly reduce the degree of liver fibrosis
- drug concentration in plasma and various tissues [3]: good drug concentration in plasma and various tissues
